Data: EP1658776A1, “Method for producing live food water organisms in the presence of an antibacterial” (priority 2004, dated 2006)
Marks after values point to notes of the source that are not given here.

Legend:
[1] = system: marine heterotrophic bacterial population; experiment: Total bacterial count on Marine agar in hatching medium (Example 1); format: cell-based; details: 24h incubation
Protocol: (§1) 1000 g commercially available dry cysts from Great Salt Lake (GSL-strain) were sprayed with 20 ml solution to which 2.43g or 2.02g AgNO3 is added and another 1000 g cysts were sprayed with 20 ml to which 14.20g or 11.81g thiosulphate (Na2S2O3.5(H2O)) is added (in a ratio of 4 mol thiosulphate to 1 mol AgNO3) to obtain respectively 1.50 or 1.25 mg Ag/l in the hatching medium, after incubation of 2g treated cysts therein. The cysts were gently mixed for 15-30 minutes while spraying. Both fractions were mixed together in a ratio of (1:1). The cysts were vacuum packed and stored at different temperatures (4°C, 20°C and 30°C). Cysts from the same batch were kept as a control. After 4 weeks they were incubated at 2g (treated) cysts /l, following standard procedures, i.e.: salinity of 25 g/I, temperature of 30°C. Continuous illumination and air bubbling was provided. After 24 hours of incubation, samples of the hatching medium were taken for determination of the total count on Marine agar (MA) and Vibrio sp. on TCBS (specific growth medium for Vibrio sp.). The hatching percentage (percentage of cysts that hatch on the total of full cysts) of the cysts was calculated. Tabel 1: Hatching percentage (HP) of cysts, number of colony forming units (cfu) per ml of hatching medium on MA and on TCBS after 24h incubation of Artemia cysts of control cysts and cysts with different amounts of AgNO3 (expressed as mg Ag/l hatching medium). Each value is the average of three counts.

[2] = system: Vibrio sp.; experiment: Vibrio count on TCBS in hatching medium (Example 1); format: cell-based; details: 24h incubation
Protocol: as §1

[3] = system: Vibrio sp.; experiment: Vibrio count on TCBS in enrichment medium (Example 5); format: cell-based; details: after 24 hours enrichment; compared to the non treated culture medium
Protocol: Artemia nauplii Instar I were harvested from the hatching tank, rinsed and incubated in cylindrical conical tanks with 90L water with a salinity of 35 g/l and a temperature of 28°C. The pH was controlled at 7.5. Stocking density of the nauplii was 300 nauplii / ml. The enrichment product 'Easy DHA Selco' which is a commercially available Seleco™-type enrichment product was added at the start of the enrichment at 600 mg/l. The dose of the silver (silver thiosulphate) in three of the six enrichment tanks was 1.5 mg Ag /l. In the three other tanks, Ag was not added. Samples of Artemia nauplii to analyse the levels of HUFA were taken at the end of the enrichment, thus 24 hours after adding the enrichment diets. At the same time, samples of the enrichment medium were taken for determination of Vibrio sp. on TCBS. Table 3: Highly unsaturated fatty acid levels (mg/g DW) of Artemia nauplli Instar II and bacterial concentrations (cfu/ml) on marine agar and TCBS of the enrichment medium after 24 hours enrichment with and without silver.

[4] = system: Vibrio sp.; experiment: Vibrio reduction by silver combined with berberine during hatching (Example 4, Figure 2); format: cell-based; details: 0.1 mg Ag per liter, with or without thiosulphate, no berberine
Protocol: GSL-cysts were incubated at 2g cysts /l, following standard procedures, i.e.: salinity of 25 g/l, temperature of 30°C. Continuous illumination and air bubbling was provided. Silver nitrate, thiosulphate and berberine were added in different concentrations to the hatching medium. After 24 hours, the hatching percentage was calculated and samples of the hatching medium were taken for determination of Vibrio sp. on TCBS.

[5] = system: crab larvae; details: natural seawater; cited from earlier work
[6] = system: Artemia cysts; experiment: Hatching percentage of treated cysts after storage at different temperatures (Example 2, Figures 1a/1b); format: in vivo, Artemia (GSL-strain); details: AgNO3 (and thiosulphate) applied on cysts; 1 to 8 weeks of storage at 20° C or more
Protocol: 1000 g commercially available dry cysts (GSL-strain) were sprayed with a 20 ml solution to which 2.43g AgNO3 and another 1000g cysts were sprayed 20 ml solution to which 14.20g thiosulphate (Na2S2O3.5(H2O)) was added. The cysts were gently mixed for 15 - 30 minutes while spraying. Both fractions of cysts were mixed together in a ratio of [1:1]. The cysts were vacuum packed and stored at different temperatures (4°C, 20°C and 30°C) for 1 to 8 weeks. At different time intervals (1 week, 2 weeks, 4 weeks and 8 weeks) they were incubated at 2g (treated) cysts /l following standard procedures, i.e.: salinity of 25 g/l, temperature of 30°C. Continuous illumination and air bubbling was provided. After 24 hours, the hatching percentage (percentage of cysts that hatch on the total of full cysts) was calculated. These values were compared with a former batch of cysts on which 1.4 mg/l of the bactericidal isothiazolin derivative comprising 5-chloro-2-methyl-4-isothiazolin-3-one and 2-methyl-4-isothiazolin-3-one was applied.

[7] = system: Artemia; experiment: Hatching percentage with silver in hatching medium, with or without thiosulphate (Example 3); format: in vivo, Artemia (GSL-cysts); details: for Hatching percentage (%) Without thiosulphate / Hatching percentage (%) With thiosulphate: 24 hours; for Hatching percentage (%) With thiosulphate: silver nitrate:thiosulphate 1:4
Protocol: GSL-cysts were incubated at 2g cysts /l, following standard procedures, i.e.: salinity of 25 g/l, temperature of 30°C. Continuous illumination and air bubbling was provided. Different concentrations of silver nitrate were added to the hatching medium. Thiosulphate was added to compare its effect on the hatching of Artemia and reduction of Vibrio sp. When thiosulphate was added, the molecular ratio of silver nitrate to thiosulphate was (1:4). After 24 hours, samples of the hatching medium were taken for determination of Vibrio sp. on TCBS and hatching percentage was calculated. Table 2: Effect of thiosulphate in combination with Ag, on hatching percentage of Artemia and on the amount of Vibrio species in the hatching medium

[8] = 1.25 mg/l Ag (AgNO3 + thiosulphate on cysts), storage 4°C
[9] = 1.25 mg/l Ag (AgNO3 + thiosulphate on cysts), storage 20°C
[10] = 1.25 mg/l Ag (AgNO3 + thiosulphate on cysts), storage 30°C
[11] = 1.50 mg/l Ag (AgNO3 + thiosulphate on cysts), storage 4°C
[12] = 1.50 mg/l Ag (AgNO3 + thiosulphate on cysts), storage 20°C
[13] = 1.50 mg/l Ag (AgNO3 + thiosulphate on cysts), storage 30°C

Compound: O=[N+]([O-])[O-].[Ag+] [Ag, silver nitrate]
- MA (cfu/ml) [1, 8]: 2.69 x 10^7 cfu/ml
- MA (cfu/ml) [1, 9]: 1.29 x 10^7 cfu/ml
- MA (cfu/ml) [1, 10]: 3.17 x 10^7 cfu/ml
- MA (cfu/ml) [1, 11]: 1.20 x 10^7 cfu/ml
- MA (cfu/ml) [1, 12]: 8.07 x 10^6 cfu/ml
- MA (cfu/ml) [1, 13]: 6.55 x 10^6 cfu/ml
- TCBS (cfu/ml) [2, 8]: <3.00 x 10^2 cfu/ml
- TCBS (cfu/ml) [2, 9]: 5.66 x 10^3 cfu/ml
- TCBS (cfu/ml) [2, 10]: <3.00 x 10^2 cfu/ml
- TCBS (cfu/ml) [2, 11]: <3.00 x 10^2 cfu/ml
- TCBS (cfu/ml) [2, 12]: <3.00 x 10^2 cfu/ml
- TCBS (cfu/ml) [2, 13]: <3.00 x 10^2 cfu/ml
- Vibrio count on TCBS [3]: significantly less
- decrease of Vibrio sp. in the hatching medium [4]: usually not sufficient to decrease the Vibrio sp.
- toxicity levels (EC50) [5]: 0.055 mg Ag/l
- Hatching percentage [6]: did not decrease
- Hatching percentage (%) Without thiosulphate ([7]; Ag 0.1 mg/l as silver nitrate): 77.1%
- Hatching percentage (%) With thiosulphate ([7]; Ag 0.1 mg/l): 79.9%
- Hatching percentage (%) Without thiosulphate ([7]; Ag 0.25 mg/l as silver nitrate): 76.6%
- Hatching percentage (%) With thiosulphate ([7]; Ag 0.25 mg/l): 78.6%
- Hatching percentage (%) Without thiosulphate ([7]; Ag 0.5 mg/l as silver nitrate): 78.3%
- Hatching percentage (%) With thiosulphate ([7]; Ag 0.5 mg/l): 76.0%
- Hatching percentage (%) Without thiosulphate ([7]; Ag 0.75 mg/l as silver nitrate): 73.9%
- Hatching percentage (%) Without thiosulphate ([7]; Ag 1.0 mg/l as silver nitrate): 72.5%
- Hatching percentage (%) With thiosulphate ([7]; Ag 1.0 mg/l): 74.4%
- Hatching percentage (%) Without thiosulphate ([7]; Ag 1.25 mg/l as silver nitrate): 75.5%
- Hatching percentage (%) Without thiosulphate ([7]; Ag 1.5 mg/l as silver nitrate): 71.1%
- Hatching percentage (%) With thiosulphate ([7]; Ag 1.5 mg/l): 76.3%
- Hatching percentage (%) Without thiosulphate ([7]; Ag 1.75 mg/l as silver nitrate, hatching is delayed (maximal HP not reached after 24 h)): 69.9* %
- Hatching percentage (%) Without thiosulphate ([7]; Ag 2.0 mg/l as silver nitrate, hatching is delayed (maximal HP not reached after 24 h)): 65.0* %
- Hatching percentage (%) With thiosulphate ([7]; Ag 2.0 mg/l): 74.3%
- Hatching percentage (%) Without thiosulphate ([7]; Ag 2.5 mg/l as silver nitrate, hatching is delayed (maximal HP not reached after 24 h)): 50.0* %
- Hatching percentage (%) With thiosulphate ([7]; Ag 2.5 mg/l): 75.6%
- Hatching percentage (%) Without thiosulphate ([7]; Ag 5.0 mg/l as silver nitrate, hatching is delayed (maximal HP not reached after 24 h)): 28.0* %
- Hatching percentage (%) With thiosulphate ([7]; Ag 5.0 mg/l): 77.6%
- Hatching percentage (%) Without thiosulphate ([7]; Ag 10.0 mg/l as silver nitrate): 0%
- Hatching percentage (%) With thiosulphate ([7]; Ag 10.0 mg/l): 77.1%
- hatching of the Artemia naupllii ([7]; more than 2 mg/l till at least 10 mg/l Ag, thiosulphate 4 mol per 1 mol AgNO3): still not affected
- hatching of Artemia nauplii ([7]; very high concentrations (> 10 mg/l), without thiosulphate): do not hatch at all
